Data from PMC4421829, “Design, Synthesis and Inhibitory Activity of Photoswitchable RET Kinase Inhibitors” (Scientific Reports, 2015).

Target: T1, RET (Homo sapiens, UniProt P07949)
T1 construct: RET tyrosine kinase domain (human recombinant RET expressed in Sf9 insect cells)
T1 sequence (P07949 724-1016 limits assumed): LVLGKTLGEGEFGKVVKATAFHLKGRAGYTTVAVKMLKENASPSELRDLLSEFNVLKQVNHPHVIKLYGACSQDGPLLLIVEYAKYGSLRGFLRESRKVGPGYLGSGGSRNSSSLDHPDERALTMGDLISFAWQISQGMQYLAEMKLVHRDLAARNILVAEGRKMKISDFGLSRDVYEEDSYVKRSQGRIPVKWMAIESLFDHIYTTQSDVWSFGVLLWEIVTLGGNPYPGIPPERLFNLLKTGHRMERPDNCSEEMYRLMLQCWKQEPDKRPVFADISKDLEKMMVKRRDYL
Assay: luminescent ATP-to-ADP conversion kinase assay (IGF1Rtide substrate, […] ATP), in the dark
Type: biochemical

- IC50: 150 nM
SMILES: CC(C)n1nc(/N=N/c2ccccc2)c2c(N)ncnc21 [compound 4, E-4]
